The record followed here is US8518980B2, “Treatment of Duchenne muscular dystrophy” (Summit Corporation PLC, priority 2006, dated 2013).

Counter-ions that a name gives are not always drawn. Bounds are passed on as bounds.

The experiment concerns Utrophin A promoter linked to a luciferase reporter gene (H2K/mdx/Utro A reporter cell line). The experiment in a line: Luciferase reporter assay (murine H2K cells). The note with it: Mus musculus, H2K mdx.

Regarding `Clc1ccc(OCc2nc3ccccc3[nH]2)cc1` [Example 495, 2-((4-chlorophenoxy)methyl)-1H-benzo[d]imidazole], the activity at 10 µM is under 200%. On to `Nc1ccc2oc(-c3ccc(O)cc3)nc2c1` [Example 496, 4-(5-aminobenzo[d]oxazol-2-yl)phenol], for which the activity at 10 µM was in the range of 201 to 300%.

For `O=C(Nc1ccc(-c2nc3ccccc3[nH]2)cc1)c1ccccc1` [Example 497, N-(4-(1H-benzo[d]imidazol-2-yl)phenyl)benzamide], the activity at 10 µM is under 200%. On to `CN(C)c1ccc(-c2nc3ccccc3[nH]2)cc1` [Example 498, 4-(1H-benzo[d]imidazol-2-yl)-N,N-dimethylaniline], for which the activity at 10 µM was under 200%. Then `COCc1nc2ccccc2[nH]1` [Example 499, 2-(methoxymethyl)-1H-benzo[d]imidazole], with under 200%; and `O=C(Nc1ccccc1-c1nc2ccccc2[nH]1)c1ccc(Cl)cc1Cl` [Example 500, N-(2-(1H-benzo[d]imidazol-2-yl)phenyl)-2,4-dichlorobenzamide], with under 200%.

With `O=C(Cc1ccccc1)Nc1ccc(-c2nc3ccccc3[nH]2)cc1` [Example 501, N-(4-(1H-benzo[d]imidazol-2-yl)phenyl)-2-phenylacetamide], the activity at 10 µM is under 200%. Then `CCc1ccc2oc(-c3cccc(N)c3)nc2c1` [Example 502, 3-(5-ethylbenzo[d]oxazol-2-yl)aniline], with 201 to 300%. Take `CC(=O)Nc1cccc(-c2nc3ccccc3[nH]2)c1` [Example 503, N-(3-(1H-benzo[d]imidazol-2-yl)phenyl)acetamide]: the activity at 10 µM is under 200%. With `O=C(Nc1cccc(-c2nc3ccccc3[nH]2)c1)c1cccs1` [Example 504, N-(3-(1H-benzo[d]imidazol-2-yl)phenyl)thiophene-2-carboxamide], the activity at 10 µM was under 200%. Next, `Cc1ccc2oc(-c3ccc([N+](=O)[O-])cc3)nc2c1` [Example 505, 5-methyl-2-(4-nitrophenyl)benzo[d]oxazole]: 201 to 300%; `Cc1ccc2nc(-c3ccc(N)cc3)oc2c1` [Example 506, 4-(6-methylbenzo[d]oxazol-2-yl)aniline]: under 200%; `Fc1ccccc1-c1nc2ccccc2[nH]1` [Example 507, 2-(2-fluorophenyl)-1H-benzo[d]imidazole]: 201 to 300%.

Take `O=[N+]([O-])c1ccc2[nH]c(-c3ccco3)nc2c1` [Example 508, 2-(furan-2-yl)-5-nitro-1H-benzo[d]imidazole]: the activity at 10 µM was under 200%. Next, `CN(C)c1ccc(-c2nc3cc([N+](=O)[O-])ccc3[nH]2)cc1` [Example 509, N,N-dimethyl-4-(5-nitro-1H-benzo[d]imidazol-2-yl)aniline]: 201 to 300%.

With `Nc1ccc2[nH]c(-c3ccco3)nc2c1` [Example 510, 2-(furan-2-yl)-1H-benzo[d]imidazol-5-amine dihydrochloride], the activity at 10 µM is under 200%. As to `O=C(Nc1ccccc1-c1nc2ccccc2[nH]1)c1ccc(S(=O)(=O)N2CCCC2)cc1` [Example 511, N-(2-(1H-benzo[d]imidazol-2-yl)phenyl)-4-(pyrrolidin-1-ylsulfonyl)benzamide], the activity at 10 µM is under 200%.

Turning to `COc1ccc(-c2nc3cc(N)ccc3o2)cc1` [Example 512, 2-(4-methoxyphenyl)benzo[d]oxazol-5-amine], the activity at 10 µM is under 200%. `CC(=O)Nc1cccc(-c2nc3ccccc3s2)c1` [Example 513, N-(3-(benzo[d]thiazol-2-yl)phenyl)acetamide]: the activity at 10 µM is under 200%. As for `Clc1cccc(-c2nc3ccccc3[nH]2)c1` [Example 514, 2-(3-chlorophenyl)-1H-benzo[d]imidazole], the activity at 10 µM was under 200%. Next, `COc1ccc(-c2nc3cc(N)ccc3o2)cc1OC` [Example 515, 2-(3,4-dimethoxyphenyl)benzo[d]oxazol-5-amine]: 201 to 300%; `O=S(=O)(c1ccc(-c2nc3ccccc3s2)cc1)N1CCCCC1` [Example 516, 2-(4-(piperidin-1-ylsulfonyl)phenyl)benzo[d]thiazole]: 201 to 300%; `CC(=O)Nc1ccc2oc(-c3ccc(Cl)cc3Cl)nc2c1` [Example 517, N-(2-(2,4-dichlorophenyl)benzo[d]oxazol-5-yl)acetamide]: 201 to 300%. Then `Nc1ccc(-c2nc3cc(Cl)cc(Cl)c3o2)cc1` [Example 518, 4-(5,7-dichlorobenzo[d]oxazol-2-yl)aniline], with 201 to 300%; and `COc1ccc(-c2nc3cc(NC(C)=O)ccc3o2)cc1Cl` [Example 519, N-(2-(3-chloro-4-methoxyphenyl)benzo[d]oxazol-5-yl)acetamide], with 201 to 300%. Then `COc1ccc(-c2nc3cc([N+](=O)[O-])ccc3[nH]2)cc1OC` [Example 520, 2-(3,4-dimethoxyphenyl)-5-nitro-1H-benzo[d]imidazole], with under 200%; and `COc1ccc(-c2nc3ccccc3n2C)cc1OC` [Example 521, 2-(3,4-dimethoxyphenyl)-1-methyl-1H-benzo[d]imidazole], with under 200%. With `COc1ccccc1-c1nc2ccccc2s1` [Example 522, 2-(2-methoxyphenyl)benzo[d]thiazole], the activity at 10 µM is under 200%.

For `O=[N+]([O-])c1cc(-c2nc3ccccc3s2)ccc1Cl` [Example 523, 2-(4-chloro-3-nitrophenyl)benzo[d]thiazole], the activity at 10 µM was under 200%. On to `O=[N+]([O-])c1ccc(Cl)c(-c2nc3ccccc3s2)c1` [Example 524, 2-(2-chloro-5-nitrophenyl)benzo[d]thiazole], for which the activity at 10 µM is under 200%.

As for `O=[N+]([O-])c1ccc2oc(-c3ccc(F)cc3)nc2c1` [Example 525, 2-(4-fluorophenyl)-5-nitrobenzo[d]oxazole], the activity at 10 µM was under 200%. Then `Cc1ccc(-c2nc3cc(N)ccc3o2)cc1Cl` [Example 526, 2-(3-chloro-4-methylphenyl)benzo[d]oxazol-5-amine], with 201 to 300%. Next, `Cc1ccc(-c2nc3cc(N)ccc3o2)c(Cl)c1` [Example 527, 2-(2-chloro-4-methylphenyl)benzo[d]oxazol-5-amine]: 201 to 300%; `COc1ccc(OCc2nc3ccccc3n2C)cc1` [Example 528, 2-((4-methoxyphenoxy)methyl)-1-methyl-1H-benzo[d]imidazole]: 201 to 300%. Consider `CC(=O)Nc1ccc(-c2nc3cc(C)cc(C)c3o2)cc1` [Example 529, N-(4-(5,7-dimethylbenzo[d]oxazol-2-yl)phenyl)acetamide], for which the activity at 10 µM lay in the range of 201 to 300%. Then `c1ccc(-c2nnc(SCc3nc4ccccc4[nH]3)o2)cc1` [Example 530, 2-((1H-benzo[d]imidazol-2-yl)methylthio)-5-phenyl-1,3,4-oxadiazole], with under 200%; and `Cc1ccc(OCc2nc3ccccc3[nH]2)cc1` [Example 531, 2-(p-tolyloxymethyl)-1H-benzo[d]imidazole], with 201 to 300%. Then `Cc1ccc2[nH]c(-c3ccc(N)cc3)nc2c1` [Example 532, 4-(5-methyl-1H-benzo[d]imidazol-2-yl)aniline], with under 200%; and `Cc1cccc(-c2nc3cc([N+](=O)[O-])ccc3o2)c1` [Example 533, 5-nitro-2-m-tolylbenzo[d]oxazole], with 201 to 300%; and `CC(=O)Nc1ccc2[nH]c(-c3ccco3)nc2c1` [Example 534, N-(2-(furan-2-yl)-1H-benzo[d]imidazol-5-yl)acetamide], with under 200%. Take `COc1ccc(-c2nc3cc(N)ccc3[nH]2)cc1` [Example 535, 2-(4-methoxyphenyl)-1H-benzo[d]imidazol-5-amine]: the activity at 10 µM was in the range of 201 to 300%. Next, `Cc1ccc(S(=O)(=O)Nc2ccc3[nH]c(-c4ccco4)nc3c2)cc1` [Example 536, N-(2-(furan-2-yl)-1H-benzo[d]imidazol-5-yl)-4-methylbenzenesulfonamide]: under 200%; `COc1ccc(-c2nc3cc([N+](=O)[O-])ccc3o2)cc1OC` [Example 537, 2-(3,4-dimethoxyphenyl)-5-nitrobenzo[d]oxazole]: under 200%; `Cc1ccc2nc(-c3cccc(NC(=O)c4ccco4)c3)[nH]c2c1` [Example 538, N-(3-(6-methyl-1H-benzo[d]imidazol-2-yl)phenyl)furan-2-carboxamide]: under 200%.

On to `Cc1cc(-c2nc3cc(Cl)ccc3o2)ccc1[N+](=O)[O-]` [Example 539, 5-chloro-2-(3-methyl-4-nitrophenyl)benzo[d]oxazole], for which the activity at 10 µM is under 200%. In the case of `O=C(Nc1ccc(-c2nc3ccccc3[nH]2)cc1)c1ccc2c(c1)OCO2` [Example 540, N-(4-(1H-benzo[d]imidazol-2-yl)phenyl)benzo[d][1,3]dioxole-5-carboxamide], the activity at 10 µM is under 200%. Next, `Cn1c(-c2ccc(Cl)cc2)nc2ccccc21` [Example 541, 2-(4-chlorophenyl)-1-methyl-1H-benzo[d]imidazole]: 201 to 300%; `COc1ccc(-c2nc3ccccc3s2)cc1NC(C)=O` [Example 542, N-(5-(benzo[d]thiazol-2-yl)-2-methoxyphenyl)acetamide]: 201 to 300%; `CSc1ccc(-c2nc3ccccc3[nH]2)cc1` [Example 543, 2-(4-(methylthio)phenyl)-1H-benzo[d]imidazole]: 201 to 300%. For the molecule `Nc1ccc(-c2nc3ccc(N)cc3o2)cc1` [Example 544, 2-(4-aminophenyl)benzo[d]oxazol-6-amine], the activity at 10 µM lay in the range of 201 to 300%. Next, `Cc1ccc2nc(-c3ccc(NC(=O)c4ccccc4C(=O)O)cc3)sc2c1` [Example 545, 2-(4-(6-methylbenzo[d]thiazol-2-yl)phenylcarbamoyl)benzoic acid]: under 200%; `CC1=NN(c2nc3ccccc3s2)C(=O)/C1=C(/C)NC1CC1` [Example 546, (Z)-1-(benzo[d]thiazol-2-yl)-4-(1-(cyclopropylamino)ethylidene)-3-methyl-1H-pyrazol-5(4H)-one]: under 200%.
